The results in this text go back to the OligoGym collection.

In the series the target is IRF4. The following applies: ASO.

Values joined by “and” are separate entries in the source; they are usually repeats but may differ in a detail not shown here. Identical values can stand only once. After the bases stand the sugars from the 5' end (letter, count) and the backbone: PS all phosphorothioate, else s phosphorothioate and o phosphodiester by linkage. Methylation of C is not given here. e = 2'-O-(2-methoxyethyl) (MOE); k = constrained ethyl (cEt); d = 2'-deoxy (DNA)

Consider “ACCTCAGTTTGTGAAG (sugars k3 d9 k3 e1, PS)”, for which the target mRNA inhibition (MM.1R, 1 µM) is 10%. In the case of “ACCTCAGTTTGTGAAG (sugars kddddddddddkekek, PS)”, the target mRNA inhibition (MM.1R, 1 µM) was determined as 18%. As for “ACCTCAGTTTGTGAAG (sugars kdddddddddkekeke, PS)”, for the setting “MM.1R, 1 µM”, the target mRNA inhibition was 16%.

Consider ACCTGGCAACCATTTT (sugars k3 d10 k3, PS), for which, for the setting “SK-MEL-28, 4 µM”, the target mRNA inhibition stood at 4%. For ACGAACGCGCAAAACC (sugars k3 d10 k3, PS), where the note is “SK-MEL-28, 4 µM”, the target mRNA inhibition was 6%.

Turning to ACGACAGCTGCGGAGC (sugars k3 d10 k3, PS), the target mRNA inhibition (SK-MEL-28, 4 µM) was 27%.

As for ACGAGGTAAATCTTCA (sugars k3 d10 k3, PS), under “SK-MEL-28, 4 µM”, the target mRNA inhibition turned out to be 61%. Still for that read-out and setting: next, ACGCAATGGCAAAAGA (sugars k3 d10 k3, PS): 11%; ACGCACCATTCAGACA (sugars k3 d10 k3, PS): -2%. ACGCACGGAGAGGGCG (sugars k3 d10 k3, PS): the target mRNA inhibition (SK-MEL-28, 4 µM) stood at 1%. On to ACGCAGAGCCAGTAGG (sugars k3 d10 k3, PS), for which the target mRNA inhibition (SK-MEL-28, 4 µM) came to 50%. “ACGGAAGTTTACACTG (sugars e1 k2 d9 k2 e2, PS)”: for the setting “MM.1R, 1 µM”, the target mRNA inhibition came to 17%.

With ACGGACGAACGCGCAA (sugars k3 d10 k3, PS), the target mRNA inhibition (MM.1R, 1 µM) was -7%. On to ACGGACTGGAACATTG (sugars k3 d10 k3, PS), for which, for the setting “MM.1R, 1 µM”, the target mRNA inhibition worked out at 38%.

Take ACGGGAATTTCCATTG (sugars k3 d10 k3, PS): the target mRNA inhibition by setting is: (SK-MEL-28, 0.185 µM) 11% and 5% and 1%; (SK-MEL-28, 4 µM) 67%; (SK-MEL-28, 5 µM) 57% and 61% and 82%; (SK-MEL-28, 15 µM) 83% and 79% and 94%. As to “ACGTGTGCTTGCCAAG (sugars kkdddddddddkekek, PS)”, the target mRNA inhibition (MM.1R, 1 µM) was 49% and 44%. Regarding ACTAAATTCTAGTTTG (sugars k3 d10 k3, PS), for the setting “SK-MEL-28, 4 µM”, the target mRNA inhibition was 0%. Regarding ACTAACTGGCTTCCAG (sugars k3 d10 k3, PS), under “SK-MEL-28, 4 µM”, the target mRNA inhibition came to 31%.

Consider ACTAATTCCATAGAGC (sugars k3 d10 k3, PS), for which the target mRNA inhibition by setting is: (MM.1R, 0.0625 µM) -18%; (MM.1R, 0.074 µM) -12%; (MM.1R, 0.222 µM) -13%; (MM.1R, 0.25 µM) -12%; (MM.1R, 0.666 µM) -10%; (MM.1R, 1 µM) -17%. Moreover, the target mRNA inhibition reads like this: (MM.1R, 2 µM) -4%; (MM.1R, 4 µM) -6%; (SK-MEL-28, 4 µM) 79%. Take ACTAGATTGTAGGACA (sugars k3 d10 k3, PS): the target mRNA inhibition (SK-MEL-28, 4 µM) is -9%. As to ACTAGCAGGGCACGCT (sugars k3 d10 k3, PS), under “SK-MEL-28, 4 µM”, the target mRNA inhibition is 38%. For the sequence ACTCAGCAAGTGTCTT (sugars k3 d10 k3, PS), for the setting “SK-MEL-28, 4 µM”, the target mRNA inhibition turned out to be 47%. Still for that read-out and setting: next, ACTGAGAGTGCGAGGT (sugars k3 d10 k3, PS): -20%; ACTGAGATATCCTGCA (sugars k3 d10 k3, PS): 19%; ACTGAGTACAAACTAA (sugars k3 d10 k3, PS): 32%. Still for that read-out and setting: next, ACTGCTGTGTGTCAAA (sugars k4 d8 k4, PS): 19%. On to “ACTGCTTGAGGTTTTC (sugars kkdddddddddekeke, PS)”, for which the target mRNA inhibition (MM.1R, 1 µM) was determined as 40%. ACTGGATATGTGGTGT (sugars k3 d10 k3, PS): the target mRNA inhibition (MM.1R, 1 µM) amounted to 10%.

As for ACTGGCATCGAGACGG (sugars k3 d10 k3, PS), for the setting “SK-MEL-28, 4 µM”, the target mRNA inhibition is 79%. As to ACTGTAAGGGCTGCTC (sugars k3 d10 k3, PS), the target mRNA inhibition (SK-MEL-28, 4 µM) was determined as 69%. On to “ACTGTTACCGATGCTT (sugars k2 d9 e3 k2, PS)”, for which the target mRNA inhibition (MM.1R, 1 µM) was 27% and 34%. In the case of “ACTGTTACCGATGCTT (sugars kkddddddddddkeke, PS)”, the target mRNA inhibition (MM.1R, 1 µM) is 30% and 48%. With “ACTGTTACCGATGCTT (sugars kkdddddddddkekek, PS)”, the target mRNA inhibition (MM.1R, 1 µM) was 30% and 18%.

On to ACTTAAGCAAGTGGAG (sugars k3 d10 k3, PS), for which the target mRNA inhibition (SK-MEL-28, 4 µM) stood at 63%. For the sequence ACTTAAGCTAAACTCC (sugars k3 d10 k3, PS), under “SK-MEL-28, 4 µM”, the target mRNA inhibition came out at 21%. As for ACTTACACCCAGAAGT (sugars k3 d10 k3, PS), under “SK-MEL-28, 4 µM”, the target mRNA inhibition is -10%. Consider ACTTACAGGACTATTT (sugars k3 d10 k3, PS), for which the target mRNA inhibition (SK-MEL-28, 4 µM) worked out at 16%. As for ACTTTGTACGGGTCTG (sugars k3 d10 k3, PS), the target mRNA inhibition (SK-MEL-28, 4 µM) is 39%. As to “ACTTTTAGAGAGGAGA (sugars k2 d9 e3 k2, PS)”, the target mRNA inhibition (MM.1R, 1 µM) was determined as 36%. For the sequence “ACTTTTAGAGAGGAGA (sugars kddddddddddkekek, PS)”, where the note is “MM.1R, 1 µM”, the target mRNA inhibition came out at 32%.

On to “ACTTTTAGAGAGGAGA (sugars kkkdddddddddkeke, PS)”, for which, for the setting “MM.1R, 1 µM”, the target mRNA inhibition was found to be 41%. Consider AGAAAACTCTAACCCT (sugars k3 d10 k3, PS), for which the target mRNA inhibition (SK-MEL-28, 4 µM) was 25%. Turning to AGAAGCACTGGCATCG (sugars k3 d10 k3, PS), where the note is “SK-MEL-28, 4 µM”, the target mRNA inhibition was 37%. AGAAGCACTGGCATTG (sugars k3 d10 k3, PS): the target mRNA inhibition (SK-MEL-28, 4 µM) came out at 45%. For the sequence AGACAAGTGCCCATCC (sugars k3 d10 k3, PS), under “MM.1R, 1 µM”, the target mRNA inhibition came to 1%. In the case of AGACAAGTGCTAGGAT (sugars k3 d10 k3, PS), the target mRNA inhibition (SK-MEL-28, 4 µM) was 56%. As for AGACAGATGACATGCT (sugars k3 d10 k3, PS), under “SK-MEL-28, 4 µM”, the target mRNA inhibition came to 50%. With AGACATTACTAGATTG (sugars k3 d10 k3, PS), the target mRNA inhibition (SK-MEL-28, 4 µM) is 66%.

In the case of AGACCAATTTATGCCA (sugars k3 d10 k3, PS), where the note is “MM.1R, 1 µM”, the target mRNA inhibition was found to be 7%. Still for that read-out and setting: the figure for AGAGCCCCTACCTTTT (sugars k3 d10 k3, PS) is -7%.

Regarding AGATAACATGAGAGTG (sugars k3 d10 k3, PS), under “SK-MEL-28, 4 µM”, the target mRNA inhibition is 41%. For the sequence AGATAGGAAGCACTGG (sugars k3 d10 k3, PS), under “SK-MEL-28, 4 µM”, the target mRNA inhibition stood at 46%. As for AGATAGTTAAGTACTT (sugars k3 d10 k3, PS), the target mRNA inhibition (SK-MEL-28, 4 µM) was determined as 11%. Regarding AGATGTAAAGATAGGA (sugars k3 d10 k3, PS), the target mRNA inhibition (SK-MEL-28, 4 µM) came to 54%. On to AGCAAGTCGGTCCACA (sugars k3 d10 k3, PS), for which the target mRNA inhibition (SK-MEL-28, 4 µM) is 54%.

For AGCAAGTGTCTAAAGT (sugars k3 d10 k3, PS), the target mRNA inhibition runs as follows: (MM.1R, 0.0625 µM) -1%; (MM.1R, 0.074 µM) -8%; (MM.1R, 0.222 µM) 6%; (MM.1R, 0.25 µM) 12%; (MM.1R, 0.666 µM) 11%; (MM.1R, 1 µM) 22%. For the same sequence, the target mRNA inhibition is, setting by setting: (MM.1R, 2 µM) 33%; (MM.1R, 4 µM) 51%; (SK-MEL-28, 4 µM) 62%. Consider AGCAATTAGCTCTTCT (sugars k3 d10 k3, PS), for which, under “MM.1R, 1 µM”, the target mRNA inhibition stood at 11%.

On to AGCAGAACGAGGTAAA (sugars k3 d10 k3, PS), for which the target mRNA inhibition (SK-MEL-28, 4 µM) was 70%. As to “AGCAGTGATGTCAGGT (sugars kddddddddddkekek, PS)”, the target mRNA inhibition is, setting by setting: (MM.1R, 0.0625 µM) 37%; (MM.1R, 0.25 µM) 50%; (MM.1R, 1 µM) 77% and 67% and 68%; (MM.1R, 4 µM) 84%. Take “AGCAGTGATGTCAGGT (sugars kdddddddddkekeke, PS)”: the target mRNA inhibition (MM.1R, 1 µM) was 26% and 36%.

As to “AGCAGTGATGTCAGGT (sugars kkddddddddddkeke, PS)”, the target mRNA inhibition (MM.1R, 1 µM) is 67% and 64%. With “AGCAGTGATGTCAGGT (sugars kkdddddddddkdkdk, PS)”, the target mRNA inhibition (MM.1R, 1 µM) is 55% and 48%. On to AGCATAAAAGGTTCCT (sugars k3 d10 k3, PS), for which the target mRNA inhibition (SK-MEL-28, 4 µM) is 45%.

As to AGCATATTCCAACAGG (sugars k3 d10 k3, PS), the target mRNA inhibition by setting is: (MM.1R, 0.0625 µM) -1%; (MM.1R, 0.074 µM) -8%; (MM.1R, 0.222 µM) -6%; (MM.1R, 0.25 µM) 6%; (MM.1R, 0.666 µM) 19%; (MM.1R, 1 µM) 18%. For the same sequence, the target mRNA inhibition runs as follows: (MM.1R, 2 µM) 32%; (MM.1R, 4 µM) 58%; (SK-MEL-28, 4 µM) 69%. Regarding AGCCACTATGGTAGGA (sugars k3 d10 k3, PS), the target mRNA inhibition (SK-MEL-28, 4 µM) turned out to be 43%.

On to AGCCAGCCAGAGGTTC (sugars k3 d10 k3, PS), for which the target mRNA inhibition (SK-MEL-28, 4 µM) turned out to be 30%. For the sequence AGCCAGTGGCTGAAAC (sugars k3 d10 k3, PS), under “SK-MEL-28, 4 µM”, the target mRNA inhibition was determined as 21%. Regarding AGCCCCTCAGGAAATG (sugars k3 d10 k3, PS), for the setting “SK-MEL-28, 4 µM”, the target mRNA inhibition was determined as 24%.

For AGCCGCCGGCACAGGC (sugars k3 d10 k3, PS), the target mRNA inhibition (SK-MEL-28, 4 µM) worked out at 1%. The same measure, in the same setting: next, AGCCTAGAGGTGCCTT (sugars k3 d10 k3, PS): 41%. The same measure, in the same setting: next, AGCCTTCACGCACCAT (sugars k3 d10 k3, PS): 30%; AGCGAGTCAGACAGTG (sugars k3 d10 k3, PS): 16%; AGCTAAACTCCTAAGT (sugars k3 d10 k3, PS): 15%. For AGCTAATGAGAGCTTC (sugars k3 d10 k3, PS), under “SK-MEL-28, 4 µM”, the target mRNA inhibition came to 17%. The same measure, in the same setting: next, AGCTACAAAGAGCACT (sugars k3 d10 k3, PS): 33%. Turning to AGCTGAGGGCAGCGGT (sugars k3 d10 k3, PS), the target mRNA inhibition (SK-MEL-28, 4 µM) is -7%. With AGCTGCGGAGCCTGGG (sugars k3 d10 k3, PS), the target mRNA inhibition (MM.1R, 1 µM) was determined as 31%. As to “AGCTTGATAAAGGCTG (sugars kdddddddddkekeke, PS)”, the target mRNA inhibition (MM.1R, 1 µM) worked out at 2%. In the case of “AGCTTGATAAAGGCTG (sugars kkddddddddddkeke, PS)”, the target mRNA inhibition (MM.1R, 1 µM) came to 1%.

Regarding “AGCTTGATAAAGGCTG (sugars kkdddddddddkdkdk, PS)”, the target mRNA inhibition (MM.1R, 1 µM) was -3%.

For the sequence “AGCTTGATAAAGGCTG (sugars kkdddddddddkekek, PS)”, the target mRNA inhibition (MM.1R, 1 µM) came to 16%.
